Among the data in PubChem BioAssay AID1205 (EPA DSSTox, 2008) are outcome values, retold here.

Each structure is given as a SMILES string. The source made the active and inactive calls.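 How the source made its calls: active means tumour findings in long-term animal cancer tests in more than one sex, species or organ; inactive means no tumour finding and more than one negative test.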

The nature of this data set: DSSTox (CPDBAS) Carcinogenic Potency Database Summary MultiCellCall Results. The settings on record: animal carcinogenicity bioassays, multi-cell call summary. From the text:
The Carcinogenic Potency Database (CPDB) is a unique and widely used international resource of the results of over 6500 chronic, long-term animal cancer tests on over 1500 chemical substances. The CPDB provides easy access to the bioassay literature, with qualitative and quantitative analyses of both positive and negative experiments that have been published over the past 50 years in the general literature and by the National Cancer Institute/National Toxicology Program. The CPDB standardizes the diverse literature of cancer bioassays that vary widely in protocol, histopathological examination and nomenclature, and in the published author's choices of what information to provide in their papers. Results are reported in the CPDB for tests in rats, mice, hamsters, dogs, and nonhuman primates, and are based on the most positive result among all experiments for each sex-species. The DSSTox CPDBAS (all species) file incorporates data from the CPDB Summary Tables for the full list of over 1500 chemical substances tested in at least one species. A summary MultiCellCall, based on experimental bioassay results of one or more species, is provided in the DSSTox CPDBAS file (see Source URL) for more than 1150 chemical substances.
Associated TD50 values and tumor site details for the relevant species/sex experiment supporting the overall CPDBAS MultiSiteCall are provided in the full DSSTox CPDBAS file (see Comment) and the corresponding CPDBAS Species Bioassay in PubChem. ActivityScore is computed as follows: multispecies=50, multisex=30, multisite=20, with combination scores computed as sums of these values, e.g. multispecies+multisite=70.
Take `O=C(O)[C@@H]1[C@H](C(=O)O)[C@@]2(Cl)C(Cl)=C(Cl)[C@]1(Cl)C2(Cl)Cl`: the outcome was “active; multisite active; multisex active; multispecies active”.

In the case of `Cc1cc(Cl)ccc1N`, the outcome is “active; multisex active”.

Turning to `O=c1ccc(=O)[nH][nH]1`, the outcome was “inactive; multisex inactive; multispecies inactive”.

For the compound `O=C(O)/C=C/c1ccc(O)c(O)c1`, the outcome was “active; multisite active; multisex active; multispecies active”.

On to `CC(C)CCC[C@@H](C)[C@H]1CC[C@H]2[C@@H]3CC=C4C[C@@H](OC(=O)Cc5ccc(N(CCCl)CCCl)cc5)CC[C@]4(C)[C@H]3CC[C@]12C`, for which the outcome was “active; multisite active; multisex active; multispecies active”.

`CNCCc1ccc(OC(=O)C(C)C)c(OC(=O)C(C)C)c1`: the outcome is “inactive; multisex inactive”.

Regarding `[O-][Br+2]([O-])O`, the outcome is “active; multisite active; multisex active; multispecies active”.

`CC1=C(C)C(=O)C(C(CCCCCC(=O)O)c2ccccc2)=C(C)C1=O` (stereo not given): the outcome was “inactive; multisex inactive”.

As for `NCCS(=O)(=O)O`, the outcome is “inactive; multisex inactive”.

Regarding `Cn1cnc([N+](=O)[O-])c1Sc1ncnc2nc[nH]c12`, the outcome was “active; multisite active”.

As to `Oc1ccc(OCc2ccccc2)cc1`, the outcome was “inactive; multisex inactive”.

With `CCN(N=O)C(=O)NCCO`, the outcome was “active; multisite active; multisex active; multispecies active”.

In the case of `O.O=S(=O)([O-])[O-].[Mn+2]`, the outcome is “inactive; multisex inactive; multispecies inactive”.

For `NC(=O)c1cccnc1`, the outcome is “inactive; multisex inactive”.

Consider `O=S(=O)([O-])[O-].[Cd+2]`, for which the outcome is “active; multisex active”.

For the compound `Nc1ccc(/C=C/c2ccc(N)cc2S(=O)(=O)O)c(S(=O)(=O)O)c1`, the outcome was “inactive; multisex inactive; multispecies inactive”.

As to `c1ccoc1`, the outcome was “active; multisite active; multisex active; multispecies active”.

For the compound `O=C1NCCN1`, the outcome was “inactive; multisex inactive”.

In the case of `CNC[C@H](O)c1cccc(O)c1`, the outcome was “inactive; multisex inactive; multispecies inactive”.

`CC(=O)c1ccc(S(=O)(=O)NC(=O)NC2CCCCC2)cc1`: the outcome is “inactive; multisex inactive; multispecies inactive”.

Regarding `O=NN1CCCC1c1ccc[n+]([O-])c1` (stereo not given), the outcome is “active; multisite active; multisex active”.

Take `O=Nc1ccc(Nc2ccccc2)cc1`: the outcome is “active; multispecies active”.

Consider `CC(C)(C)c1cc(O)ccc1O`, for which the outcome is “inactive; multisex inactive”.

As for `C[C@]12C/C(=C/O)C(=O)C[C@@H]1CC[C@@H]1[C@@H]2CC[C@@]2(C)[C@H]1CC[C@]2(C)O`, the outcome was “active; multisite active”.

Regarding `Cc1cnc2ccc3c(nc(N)n3C)c2n1`, the outcome was “active; multisite active; multisex active; multispecies active”.

For `F[B-](F)(F)F`, the outcome is “inactive; multisex inactive”.

In the case of `Nc1nnc(-c2ccc([N+](=O)[O-])o2)o1`, the outcome was “active; multisite active”.

Consider `CCN=c1cc2oc3cc(NCC)c(C)cc3c(-c3ccccc3C(=O)OCC)c-2cc1C`, for which the outcome was “inactive; multisex inactive; multispecies inactive”.

As to `O=Cc1ccccc1`, the outcome was “active; multisex active”.

Turning to `O=NN1CCOCC1`, the outcome was “active; multisite active; multisex active; multispecies active”.

Regarding `CCC[N+](=O)[O-]`, the outcome is “inactive; multisex inactive”.

For the compound `CC(C)=CCl`, the outcome was “active; multisite active; multisex active; multispecies active”.

As to `Clc1nc(Cl)nc(Nc2ccccc2Cl)n1`, the outcome was “inactive; multisex inactive; multispecies inactive”.

Regarding `Cn1cc(C(=O)O)c(=O)c2ccc(/C=C/c3ccc([N+](=O)[O-])o3)nc21`, the outcome was “active; multisite active”.

As for `c1ccc(N=Nc2ccccc2)cc1`, the outcome is “active; multisite active; multisex active”.
